In publication PMC3171632 (2011):

Columns and labels:
[1] = target: T1, LuxS (S-ribosylhomocysteinase) (Bacillus subtilis, UniProt O34667); assay: LuxS activity assay with SRH and DTNB at […] nm; type: biochemical
T1 sequence (O34667 1-157): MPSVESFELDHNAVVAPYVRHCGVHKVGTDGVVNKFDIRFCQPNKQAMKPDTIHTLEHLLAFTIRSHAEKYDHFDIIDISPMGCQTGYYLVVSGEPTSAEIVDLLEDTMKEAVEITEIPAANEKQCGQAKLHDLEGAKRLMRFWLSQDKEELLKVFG

[2] = target: T1, LuxS (S-ribosylhomocysteinase); assay: LuxS activity assay with SRH and DTNB at […] nm, […] min preincubation; type: biochemical

Row | Ki [1] | Ki [2] | SMILES
1 | 37 µM | – | N[C@@H](CCSC[C@H]1NC(=O)[C@H](O)[C@@H]1O)C(=O)O [compound 21, S-(4-Amino-4,5-dideoxy-D-ribono-1,4-lactam-5-yl)-L-homocysteine]
2 | 48 µM | – | N[C@@H](CCSC[C@H]1NC[C@H](O)[C@@H]1O)C(=O)O [compound 12, S-(1-Amino-1,4-anhydro-1,5-dideoxy-D-ribitol-5-yl)-L-homocysteine]
3 | – | 3.5 µM | N[C@@H](CCSC[C@H]1NC(O)[C@H](O)[C@@H]1O)C(=O)O (mixture of isomers) [compound 23, S-(4-Amino-4,5-dideoxy-α/β-D-ribofuranos-5-yl)-L-homocysteine]
